From paper PMC7287781 (Molecules, 2020) come the findings set out here.

The target of experiment [1] is T1, STAT3 (Homo sapiens, UniProt P40763).
T1 construct: STAT3 protein (ab43618, Abcam)
The experiment is described as follows: fluorescence polarization competition with 5-carboxyfluorescein-GpYLPQTV-NH2; […], […], […] inhibition at […]. Format: binding.

In experiment [2] the target is T2, Flt-1 (Homo sapiens, UniProt P17948).
T2 construct: gene FLT1; purified tyrosine kinase protein
The experiment is described as follows: ELISA tyrosine kinase activity assay, single concentration. Type of experiment: biochemical. The settings on record: read-out: Inhibition Rate(%) / Flt-1.

Experiment [3] deals with T3, PDGFR-β (Homo sapiens, UniProt P09619).
T3 construct: gene PDGFRB; purified tyrosine kinase protein
The description is as above. Format: biochemical. To be noted: read-out: Inhibition Rate(%) / PDGFR-β.

Experiment [4] has as its target T4, PDGFR-α (Homo sapiens, UniProt P16234).
T4 construct: gene PDGFRA; purified tyrosine kinase protein
The experiment is described as above. Type of experiment: biochemical. To be noted: read-out: Inhibition Rate(%) / PDGFR-α.

T2 sequence (P17948 27-1338): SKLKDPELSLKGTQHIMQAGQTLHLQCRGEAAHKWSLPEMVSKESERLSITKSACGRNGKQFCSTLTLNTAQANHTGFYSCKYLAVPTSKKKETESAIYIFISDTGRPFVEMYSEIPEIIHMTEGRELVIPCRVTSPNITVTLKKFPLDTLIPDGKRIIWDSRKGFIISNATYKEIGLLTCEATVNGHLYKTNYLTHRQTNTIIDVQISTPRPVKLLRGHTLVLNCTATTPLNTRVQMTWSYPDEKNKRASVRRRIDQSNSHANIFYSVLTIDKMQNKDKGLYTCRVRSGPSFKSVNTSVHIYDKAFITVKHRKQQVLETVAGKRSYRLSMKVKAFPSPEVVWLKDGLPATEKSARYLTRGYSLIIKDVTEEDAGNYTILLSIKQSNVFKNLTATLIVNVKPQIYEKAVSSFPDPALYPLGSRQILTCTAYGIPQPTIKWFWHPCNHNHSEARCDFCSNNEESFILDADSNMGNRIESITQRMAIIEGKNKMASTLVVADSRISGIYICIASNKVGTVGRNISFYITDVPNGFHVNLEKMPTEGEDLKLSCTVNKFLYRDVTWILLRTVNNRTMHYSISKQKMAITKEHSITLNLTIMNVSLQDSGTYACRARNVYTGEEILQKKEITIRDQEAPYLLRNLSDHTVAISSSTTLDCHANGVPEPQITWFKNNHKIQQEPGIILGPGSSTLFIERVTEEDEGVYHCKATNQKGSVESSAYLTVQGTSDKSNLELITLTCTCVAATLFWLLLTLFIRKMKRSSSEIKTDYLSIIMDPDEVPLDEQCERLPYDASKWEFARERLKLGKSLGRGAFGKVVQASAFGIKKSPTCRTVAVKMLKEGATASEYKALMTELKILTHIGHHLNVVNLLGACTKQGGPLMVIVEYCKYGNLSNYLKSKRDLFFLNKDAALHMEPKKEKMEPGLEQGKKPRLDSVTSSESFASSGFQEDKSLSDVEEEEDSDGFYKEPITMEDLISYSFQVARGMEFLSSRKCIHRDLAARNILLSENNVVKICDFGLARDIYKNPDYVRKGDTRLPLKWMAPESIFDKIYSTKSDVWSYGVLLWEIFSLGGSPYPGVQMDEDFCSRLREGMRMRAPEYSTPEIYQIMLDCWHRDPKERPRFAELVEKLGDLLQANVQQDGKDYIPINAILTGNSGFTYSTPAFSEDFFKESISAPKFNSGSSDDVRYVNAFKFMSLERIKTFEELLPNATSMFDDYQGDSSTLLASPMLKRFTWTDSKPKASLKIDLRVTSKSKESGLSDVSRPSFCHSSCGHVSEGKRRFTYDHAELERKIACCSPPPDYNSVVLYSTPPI
T4 sequence (P16234 24-1089): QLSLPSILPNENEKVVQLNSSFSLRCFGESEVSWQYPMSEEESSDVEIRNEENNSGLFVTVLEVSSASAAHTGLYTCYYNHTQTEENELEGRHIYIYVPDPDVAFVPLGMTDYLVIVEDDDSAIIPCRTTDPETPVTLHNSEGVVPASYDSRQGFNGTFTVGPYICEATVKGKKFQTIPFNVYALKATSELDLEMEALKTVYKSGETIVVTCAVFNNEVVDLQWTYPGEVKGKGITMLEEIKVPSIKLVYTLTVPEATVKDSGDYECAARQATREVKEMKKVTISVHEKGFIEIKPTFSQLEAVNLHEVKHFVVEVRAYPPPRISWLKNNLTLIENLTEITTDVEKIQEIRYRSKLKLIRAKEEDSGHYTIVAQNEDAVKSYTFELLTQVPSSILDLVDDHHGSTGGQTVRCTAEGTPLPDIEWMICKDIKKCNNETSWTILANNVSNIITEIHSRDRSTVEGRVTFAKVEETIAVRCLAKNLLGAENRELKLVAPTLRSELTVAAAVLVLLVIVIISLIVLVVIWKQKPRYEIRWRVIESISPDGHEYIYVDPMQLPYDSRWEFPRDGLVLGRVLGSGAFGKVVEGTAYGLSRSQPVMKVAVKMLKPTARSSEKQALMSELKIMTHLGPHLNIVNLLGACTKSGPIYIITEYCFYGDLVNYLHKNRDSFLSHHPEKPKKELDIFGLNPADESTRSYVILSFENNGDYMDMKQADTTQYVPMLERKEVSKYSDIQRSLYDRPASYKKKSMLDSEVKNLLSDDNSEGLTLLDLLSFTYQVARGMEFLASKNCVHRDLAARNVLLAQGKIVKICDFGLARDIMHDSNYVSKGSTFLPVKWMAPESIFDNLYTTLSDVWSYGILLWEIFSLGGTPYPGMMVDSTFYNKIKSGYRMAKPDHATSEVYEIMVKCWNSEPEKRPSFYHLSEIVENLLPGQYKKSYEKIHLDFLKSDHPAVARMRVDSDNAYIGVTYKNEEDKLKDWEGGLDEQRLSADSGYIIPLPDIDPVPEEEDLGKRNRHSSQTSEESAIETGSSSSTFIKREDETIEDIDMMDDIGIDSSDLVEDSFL
T3 sequence (P09619 33-1106): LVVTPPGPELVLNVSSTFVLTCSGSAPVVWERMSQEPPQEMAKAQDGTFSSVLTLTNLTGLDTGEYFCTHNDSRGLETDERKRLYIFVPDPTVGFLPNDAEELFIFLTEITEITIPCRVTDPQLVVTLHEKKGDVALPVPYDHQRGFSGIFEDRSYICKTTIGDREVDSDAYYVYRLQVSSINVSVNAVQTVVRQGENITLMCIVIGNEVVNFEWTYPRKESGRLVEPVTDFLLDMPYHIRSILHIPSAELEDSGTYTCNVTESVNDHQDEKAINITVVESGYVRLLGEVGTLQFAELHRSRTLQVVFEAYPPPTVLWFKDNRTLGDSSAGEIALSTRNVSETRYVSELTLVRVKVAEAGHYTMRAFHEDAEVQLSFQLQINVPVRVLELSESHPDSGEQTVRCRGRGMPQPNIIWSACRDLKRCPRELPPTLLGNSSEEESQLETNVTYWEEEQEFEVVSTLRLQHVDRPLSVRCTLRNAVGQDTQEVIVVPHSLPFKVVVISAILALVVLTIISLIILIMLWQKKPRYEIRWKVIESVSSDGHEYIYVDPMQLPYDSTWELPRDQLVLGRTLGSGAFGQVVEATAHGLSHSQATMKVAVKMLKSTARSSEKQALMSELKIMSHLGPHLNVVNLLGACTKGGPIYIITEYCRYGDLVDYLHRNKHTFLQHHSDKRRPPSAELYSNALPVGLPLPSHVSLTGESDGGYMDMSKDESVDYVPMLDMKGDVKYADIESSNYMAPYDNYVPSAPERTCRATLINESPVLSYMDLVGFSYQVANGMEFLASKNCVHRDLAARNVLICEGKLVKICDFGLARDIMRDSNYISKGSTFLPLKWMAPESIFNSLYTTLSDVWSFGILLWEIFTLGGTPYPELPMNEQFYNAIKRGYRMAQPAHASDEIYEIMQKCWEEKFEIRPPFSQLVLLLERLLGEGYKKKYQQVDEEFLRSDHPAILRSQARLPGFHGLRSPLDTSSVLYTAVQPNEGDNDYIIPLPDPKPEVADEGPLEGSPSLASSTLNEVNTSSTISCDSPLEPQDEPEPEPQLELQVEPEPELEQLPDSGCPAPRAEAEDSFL
T1 sequence (P40763 2-770): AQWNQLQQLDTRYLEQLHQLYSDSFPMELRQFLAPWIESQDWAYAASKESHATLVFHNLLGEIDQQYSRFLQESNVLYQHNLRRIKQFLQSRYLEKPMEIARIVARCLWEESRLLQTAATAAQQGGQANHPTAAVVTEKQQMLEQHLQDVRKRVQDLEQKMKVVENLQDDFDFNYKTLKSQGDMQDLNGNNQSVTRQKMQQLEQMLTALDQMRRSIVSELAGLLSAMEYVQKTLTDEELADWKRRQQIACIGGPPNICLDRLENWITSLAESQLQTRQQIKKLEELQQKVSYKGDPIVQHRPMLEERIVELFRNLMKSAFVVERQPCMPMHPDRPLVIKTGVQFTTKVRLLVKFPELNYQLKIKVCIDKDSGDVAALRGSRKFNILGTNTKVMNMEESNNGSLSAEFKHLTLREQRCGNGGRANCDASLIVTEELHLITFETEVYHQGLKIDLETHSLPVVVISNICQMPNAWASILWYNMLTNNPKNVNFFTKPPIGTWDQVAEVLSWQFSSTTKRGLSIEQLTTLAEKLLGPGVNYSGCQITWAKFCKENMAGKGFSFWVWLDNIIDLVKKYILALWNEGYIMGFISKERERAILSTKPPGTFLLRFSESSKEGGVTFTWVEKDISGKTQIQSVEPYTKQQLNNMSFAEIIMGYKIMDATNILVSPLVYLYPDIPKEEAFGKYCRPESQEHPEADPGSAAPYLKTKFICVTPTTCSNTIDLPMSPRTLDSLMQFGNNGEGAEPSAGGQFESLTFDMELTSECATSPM

For `C/C=C\C(=O)O[C@@H]1C[C@H]2O[C@@H]3C=C(C)C(=O)C[C@]3(C)[C@]1(C)[C@]21CO1` [TCN, trichothecin], in experiment [1], the “% inhibition at 2 μM” value is 53.9.

For `CCN(CC)CCNC(=O)c1c(C)[nH]c(/C=C2\C(=O)Nc3ccc(F)cc32)c1C` [Su11248], the figures for the inhibition at 1 µM in experiment [2], in experiment [3] and in experiment [4] were 66.6%, 80.2% and 68.4%, respectively.
